{
  "source": "patent US20250041313A1",
  "about": "“COMBINATION THERAPY FOR TREATMENT OF CANCER” (CITY OF HOPE, priority 2023, published 2025)",
  "key": {"[1]": {"system": "pDRP1 (Ser616) in SBC5 cells", "test": "pDRP1 Ser616 immunofluorescence staining, QuPath", "assay_type": "cell-based, human", "conditions": "SBC5, Teri overnight", "protocol": "(§1) SBC3 and SBC5 cells were grown on glass coverslips and treated with Teri overnight. Next, cells were fixed in 4% paraformaldehyde, permeabilized, and blocked before incubating with pDRP1 (Ser^616) antibody followed by Alexa 488 secondary antibody. This was followed by staining with Tom20 (F-10) antibody. A far-red dye was used for cytoplasmic staining. Fluorescent images were acquired on an Axio Observer 7 inverted microscope (Carl Zeiss, Jena, Germany). Nuclei and DRP1 were stained with DAPI and Alexa 488 secondary antibody. All imaging was performed using a 40×/0.95 NA Plan-Apochromat objective with a final per pixel scaling of 0.147 by 0.147 microns. Within each 3×3 field of image view (>200 cells per image), QuPath 0.2.0M9 was used to detect cell nuclei, a cytoplasmic area around the nucleus was expanded for analysis, followed by limiting the area of that blind expansion based on the presence of the cytoplasmic dye. […] The mean pDRP1 signal intensity was then measured within that area. The green intensity sum of these areas was calculated per cell and then averaged for each sample image.\n(§2) Additionally, SBC3 and SBC5 cells were stained with pDRP1 Ser^616 antibody (2° ab Alexa488), and the phosphorylation level was analyzed with QuPath 0.2.0M9 software."}, "[2]": {"system": "pDRP1 (Ser616) in SBC3 cells", "test": "pDRP1 Ser616 immunofluorescence staining, QuPath", "assay_type": "cell-based, human", "conditions": "SBC3, Teri overnight", "protocol": "as §1, §2"}, "SBC3 cells": {"system": "SBC3 cells", "test": "Immunoblotting of cell lysates (pDRP1, p53, DNA damage markers)", "assay_type": "cell-based, human", "protocol": "(§3) SCLC total cell lysates were prepared using RIPA (radioimmunoprecipitation assay lysis buffer) lysis buffer. Protein concentration was determined using DC Protein Assay Kit Bio-Rad (Hercules, CA). Samples were then run on SDS-PAGE in 4-15% polyacrylamide gels and transferred onto Immobilon membranes (Millipore, MO), blocked, incubated with specific primary antibodies at 4° C. overnight, and subsequently developed with secondary antibodies. The following primary antibody were used: pan-Actin, Phospho-DRP1 (Ser^616), Phospho-DRP1 (Ser^637), Histone H2B (V^119), Phospho-Histone H2A.X (Ser^139), Phospho-P53 (Ser^15), P-53, Cleaved PARP (Asp^214) (D64E10), Phospho-Chk1 (Ser^345) (133D3) and p21 were from Cell Signaling Technology (City of Industry, CA), β-Actin (Sigma-Aldrich, St. Luis, MO), Phospho RNA Polymerase II (S2) antibody (Bethyl Lab, Montgomery, TX), RNA Polymerase II CTD4H8 (BioLegend, San Diego, CA), DHODH (E-8), DRP1 (C-5), GAPDH (0411), c-Myc (9E10), Tom20 (F-10), FisI (B-5), OPA1 (D-9), antibodies from Santa Cruz Biotechnology (Dallas, TX) and MFN2 (Abcam, Boston, MA) and Chk1, MDM2, Cyclin CDK4 and D1, and E2F1 (Proteintech, Rosemont, IL)."}, "SBC5 SCLC cell line": {"system": "SBC5 SCLC cell line", "test": "Immunoblotting of DRP1 phosphorylation", "assay_type": "cell-based, human", "conditions": "SBC5 as printed", "protocol": "as §3\nAlthough mitochondrial areas of SBC5 cells were not affected with treatment, elongations of individual mitochondria were detected with each treatment."}, "SBC5 xenograft": {"system": "SBC5 xenograft", "test": "SBC5 mouse xenograft, Carbo/Leflu study", "assay_type": "in vivo", "conditions": "Carbo 50 mg/kg, Leflu 7.5 mg/kg, i.p. twice a week", "protocol": "Athymic nude nu/nu mice were obtained from Charles River, Wilmington, MA, and were acclimated for a week before beginning the experiment. All animal experiments were carried out in accordance with a protocol approved by the Institutional Animal Care and Use Committee COH (IACUC #16004). For treatments, mice were divided into 4 groups with five mice per group and subcutaneously injected into one flank with 2×10^6 SBC3 or SBC5 cells suspensions in 100 μl of PBS. Treatment started on the 14th day when tumors became palpable. Two in vivo studies were done in this project. SBC3 and SBC 5 xenograft with i) vehicle control, ii) […] 50 mg/kg, iii) Leflu 7.5 mg/kg, and iv) […]/Leflu. SBC3 with i) vehicle control, ii) Lur 0.5 mg/kg, iii) Leflu 3.8 mg/kg, and iv) Lur/Leflu. Treatments were given to mice via i.p. twice a week for 6 weeks. Animals were examined daily for signs of tumor growth. Tumors were measured in two dimensions using calipers and body weights were recorded. Animals were photographed on days 1, 5, 10, 15, 20, 25, 30, 35, and 40 after treatment. Tumors were removed on day 40 and photographed. At the end of the study, the mice were euthanized by CO2 asphyxiation followed by cervical dislocation. The tumor weights were compared between groups using an unpaired Student's t-test. […] Mean immunofluorescence intensities were calculated with ZEN 2.3 Lite software."}, "SBC3 spheroids": {"system": "SBC3 spheroids", "test": "Immunoblotting of spheroid lysates", "assay_type": "cell-based, human", "protocol": "as §3\n(§4) SBC3 and H446 cells were plated at a density of 10,000 cells per well in 96-well ULA round-bottomed plates (S-Bio, Hudson, NH) and incubated for 72 h at 37° C., 5% CO2, and 95% humidity. Spheroids were transferred to low cell attachment dishes, grown for two days, and treated with drug. After treatment, spheroid samples were run with Western blot assay. For spheroid mitochondria visualization, they were stained with 250 nM MitoTracker® Red CMXRos and Hoechst from ThermoFisher Scientific (Waltham, MA) for 2 h after drug treatment. Spheroids were washed, fixated with 4% PFA, transferred into 96-well flat glass-bottom black microplate (Cellvis, Mountain View, CA), and mounted in wells."}, "H446 spheroids": {"system": "H446 spheroids", "test": "Spheroid LDH cytotoxicity/death assay", "assay_type": "cell-based, human", "conditions": "72 h", "protocol": "as §4\nLDH activity was measured using LDH Cytotoxicity Assay Kit following the manufacturer protocol (Thermo Fisher Scientific, Waltham, MA). Briefly, H446 and SBC3 spheroids after 72 hours of drug treatments were mixed with 10 μl 10× lysis buffer and incubated for 45 min in cell culture incubator. 50 μl of lysed cells from each sample were used to measure absorbance by plate reader (Tecan Spark 10, Salzburg, Austria). Percentage of cell cytotoxicity/death was calculated by using the following formula: […]"}},
  "data": [
    {"smiles": "C/C(O)=C(\\C#N)C(=O)Nc1ccc(C(F)(F)F)cc1", "note": "[Teriflunomide, teriflunomide]", "values": [
      {"measurement": "pDRP1 Ser616 green IF signal intensity", "setting": "[1]", "value": "significant signal intensity decreased"},
      {"measurement": "pDRP1 Ser616 green IF signal intensity", "setting": "[2]", "value": "significant signal intensity decreased"},
      {"measurement": "ratio of pDRP1 (Ser616) to pDRP1 (Ser637)", "setting": "SBC3 cells; SBC3, densitometry", "value": "significantly decreased in a dose-dependent manner"},
      {"measurement": "DRP1 expression level", "setting": "SBC3 cells; SBC3, immunoblot", "value": "unaffected"},
      {"measurement": "DRP1 phosphorylation at Ser616, and Ser637", "setting": "SBC3 cells; SBC3, immunoblot", "value": "significantly inhibited"},
      {"measurement": "DRP1 expression level", "setting": "SBC5 SCLC cell line", "value": "unaffected"},
      {"measurement": "DRP1 phosphorylation at Ser616, and Ser637", "setting": "SBC5 SCLC cell line", "value": "significantly inhibits"}
    ]},
    {"smiles": "Cc1oncc1C(=O)Nc1ccc(C(F)(F)F)cc1", "note": "[Leflunomide, leflunomide]", "values": [
      {"measurement": "final tumor weight (day 40)", "setting": "SBC5 xenograft", "value": "1.49 ± 0.20", "unit": "g"}
    ]},
    {"smiles": "COc1ccc2[nH]c3c(c2c1)CCN[C@]31CS[C@@H]2c3c(OC(C)=O)c(C)c4c(c3[C@H](COC1=O)N1[C@@H]2[C@H]2c3c(cc(C)c(OC)c3O)C[C@@H]([C@@H]1O)N2C)OCO4", "note": "[Lurbinectedin, lurbinectedin]", "values": [
      {"measurement": "p21 level", "setting": "SBC3 spheroids", "value": "upregulated"},
      {"measurement": "percentage of dead cells", "setting": "H446 spheroids", "value": "significantly increased"}
    ]}
  ]
}
